Assay results taken from US11370788B2, “Substituted imidazo[4,5-c]quinoline compounds with an N-1 branched group” (3M INNOVATIVE PROPERTIES COMPANY, priority 2018, dated 2022).

Test system: Human peripheral blood mononuclear cells (PBMC)
Experiment: Cytokine Induction in Human Cells (PBMC)
Format: cell-based
Settings: 21-24 hours culture, lowest concentration giving cytokine at least 2× negative control; for MEC to Induce Cytokine IFN-alpha: ELISA; for MEC to Induce Cytokine IFN-gamma / MEC to Induce Cytokine TNF-alpha: multiplex bead assay
Protocol: Whole blood was obtained from healthy human donors and collected by venipuncture into vacutainer tubes or syringes containing EDTA. Human peripheral blood mononuclear cells (PBMC) were purified from the whole blood by density gradient centrifugation. Histopaque 1077 (15 mL, Sigma, St. Louis, Mo.) was transferred to 6×50 mL sterile polypropylene conical tubes. The Histopaque was overlayed with 15-25 mL of blood diluted 1:2 in Hank's Balanced Salts Solution (HBSS) (Gibco, Life Technology, Grand Island, N.Y.). The tubes were then centrifuged at 1370 rpm for 30 minutes at 20° C., with no brake (400λg, GH 3.8A Rotor).
The interface (buffy coat) containing the PBMC was collected and placed in a new sterile 50 mL conical polypropylene centrifuge tube. The PBMC were mixed with an equal volume of HBSS (about 20 mL from the interface and about 20 mL of HBSS), and then centrifuged at 1090 rpm, 10 minutes, 20° C., with brake (270λg, GH 3.8A Rotor). After completing centrifugation, the cells were resuspended in 2 to 3 mL ACK Red blood cell lysis buffer (ammonium chloride potassium solution, Gibco, Life Technology) and incubated for 2-5 minutes at 20° C. Next, HBSS (40 mL) was added to the cells, and the sample was centrifuged at 270×g for 10 minutes at 20° C. The supernatant was decanted, and the cell pellet was resuspended in 5 mL AIM V Medium (Gibco, Life Technology). Cell aggregates and debris were removed by filtering the cell solution through a BD Falcon 70 micron nylon cell strainer (BD Biosciences, San Jose, Calif.).
The number of viable cells was determined by counting with a Miltenyi FACS instrument (Miltenyi Biotec Inc., San Diego, Calif.) or by using a hemacytometer. For determining cell viability with a hemacytometer, the cells were diluted 1/10 in 0.4% trypan blue and HBSS (specifically, 50 microliter of trypan blue+40 microliter of HBSS+10 microliter of cell solution were added to a microfuge tube and mixed). Ten microliters of the diluted cells were then applied to the hemacytometer, and the number of viable PBMC were determined by microscopy.
The PBMC sample was then resuspended in 96-well plates at a concentration of 8×10^5 cells/well in 0.1 mL of AIM-V medium. Each compound was solubilized in DMSO to create a 3 mM stock solution. The stock solution was then further diluted with AIM-V medium to prepare the serial dilutions. The diluted compound (100 microliters) was then transferred to the PBMCs to achieve final compound concentrations of 30, 10, 3.3, 1.1, 0.37, 0.12, 0.04, 0.01 micromolar. The plates also had both positive and negative controls. The negative control wells contained only AIM-V medium with no example compound. The positive control wells contained imiquimod serially diluted to concentrations of 30, 10, 3.3, 1.1, 0.37, 0.12, 0.04, 0.01 micromolar. The plates were then cultured at 37° C./5% CO2 for 21-24 hours. Cell-free supernatants were harvested by centrifuging the 96-well plates at 2100 rpm, 23° C. for 10 minutes. Approximately 160 microliter of the supernatant was then stored in a NUNC 96-well plate, covered with the compression cap and stored at −80° C. until the cytokine analysis was done.
IFN-alpha cytokine levels (picograms/mL) were measured by ELISA (human IFN-alpha, pan specific, Mabtech, Cincinnati, Ohio). IFN-gamma and TNF-alpha levels (picograms/mL) were measured by multiplex bead assay (magnetic beads, R & D Systems, Minneapolis, Minn.) according to the manufacturer's instructions.
Specifically, the minimum effective concentration of each compound (micromolar) was determined as the lowest concentration of the compound that induced a measured cytokine response at a level ([…]) that was at least 2× greater than that observed with the negative control wells.

Row | SMILES | MEC to Induce Cytokine IFN-alpha [µM] | MEC to Induce Cytokine IFN-gamma [µM] | MEC to Induce Cytokine TNF-alpha [µM]
1 | CCCCC(CC)COc1ccc(C[C@@H](COCC)n2cnc3c(N)nc4ccccc4c32)cc1 (stereo partly drawn) [Example 5, 1-[(1 S)-1-(ethoxymethyl)-2-[4-(2-ethylhexoxy)phenyl]ethyl]imidazo[4,5-c]quinolin-4-amine] | 0.37 | 0.04 | ≤0.01
2 | CCCCCCOc1ccc(C[C@@H](COCC)n2cnc3c(N)nc4ccccc4c32)cc1 [Example 4, 1-[(1S)-1-(ethoxymethyl)-2-(4-hexoxyphenyl)ethyl]imidazo[4,5-c]quinolin-4-amine] | ≤0.01 | ≤0.01 | ≤0.01
3 | CCCCCCCCCCCCOc1ccc(C[C@@H](COCC)n2cnc3c(N)nc4ccccc4c32)cc1 [Example 1, 1-[(1 S)-1-[(4-dodecoxyphenyl)methyl]-2-ethoxy-ethyl]imidazo[4,5-c]quinolin-4-amine] | 3.3 | 10 | 3.3
4 | CCCCOc1ccc(C[C@@H](COCC)n2cnc3c(N)nc4ccccc4c32)cc1 [Example 3, 1-[(1S)-1-[(4-butoxyphenyl)methyl]-2-ethoxy-ethyl]imidazo[4,5-c]quinolin-4-amine] | ≤0.01 | ≤0.01 | ≤0.01
5 | CCCCCCCCOc1ccc(C[C@@H](COCC)n2cnc3c(N)nc4ccccc4c32)cc1 [Example 2, 1-[(1S)-1-(ethoxymethyl)-2-(4-octoxyphenyl)ethyl]imidazo[4,5-c]quinolin-4-amine] | 0.12 | 0.37 | 0.37
6 | CCOC[C@H](Cc1ccc(OCc2ccccc2)cc1)n1cnc2c(N)nc3ccccc3c21 [Example 6, 1-[(1S)-1-[(4-benzyloxyphenyl)methyl]-2-ethoxy-ethyl]imidazo[4,5-c]quinolin-4-amine] | ≤0.01 | ≤0.01 | ≤0.01
